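96-well plates; 48 h exposure; 5 concentrations. Endpoints by linear interpolation between flanking doses. Not reached: highest tested concentration assigned. The concentration for 50% growth inhibition is given as GI50. TGI is the concentration that stops growth completely.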
How the values were obtained:
Test in all cases: growth of human tumour cells (NCI), 48 h
ACHN renal = tested on: ACHN renal
BT-549 breast = tested on: BT-549 breast
HCC-2998 colon = tested on: HCC-2998 colon
HCT-15 colon = tested on: HCT-15 colon
OVCAR-4 ovarian = tested on: OVCAR-4 ovarian
RXF 393 renal = tested on: RXF 393 renal
SF-268 CNS = tested on: SF-268 CNS
U251 CNS = tested on: U251 CNS
UO-31 renal = tested on: UO-31 renal
HOP-92 NSCLC = tested on: HOP-92 NSCLC

| SMILES | TGI (ACHN renal) [µM] | TGI (BT-549 breast) [µM] | TGI (HCC-2998 colon) [µM] | TGI (HCT-15 colon) [µM] | TGI (OVCAR-4 ovarian) [µM] | TGI (RXF 393 renal) [µM] | TGI (SF-268 CNS) [µM] | TGI (U251 CNS) [µM] | TGI (UO-31 renal) [µM] | TGI (HOP-92 NSCLC) [µM] | GI50 (ACHN renal) [µM] | GI50 (BT-549 breast) [µM] | GI50 (HCT-15 colon) [µM] | GI50 (HOP-92 NSCLC) [µM] | GI50 (OVCAR-4 ovarian) [µM] | GI50 (RXF 393 renal) [µM] | GI50 (SF-268 CNS) [µM] | GI50 (UO-31 renal) [µM] | GI50 (HCC-2998 colon) [µM] |
| --- | --- | --- | --- | --- | --- | --- | --- | --- | --- | --- | --- | --- | --- | --- | --- | --- | --- | --- | --- |
| N#CC1C(=O)Nc2sc(C(=O)c3ccc(Br)cc3)c(N)c2C12CCCCC2 (configuration not stated) | > 100 | > 100 | 57.7 | > 100 | > 100 | 31.8 | > 100 | > 100 | > 100 |  |  |  |  |  |  |  |  |  |  |
| OC(c1cccs1)c1cc2ccccc2s1 (configuration not stated) | > 10 |  | > 10 | > 10 | > 10 | > 10 | > 10 | > 10 | > 10 | > 10 |  |  |  |  |  |  |  |  |  |
| O=[N+]([O-])c1ccc(Cl)cc1C1ON=C(c2ccccc2)N1C12CC3CC(CC(C3)C1)C2 (configuration not stated) | > 100 |  | > 100 | > 100 | > 100 | > 100 | > 100 | > 100 | > 100 | > 100 |  |  |  |  |  |  |  |  |  |
| Cn1c(C(C#N)c2cc(Cl)ncn2)nc2ccccc21 (configuration not stated) | > 100 | > 100 |  | > 100 | > 100 | > 100 | > 100 | > 100 | > 100 | > 100 |  |  |  |  |  |  |  |  |  |
| CCOC(OCC)C(CC)[Se]c1ccccc1[N+](=O)[O-] (configuration not stated) | > 100 |  | 14.3 | 22.2 | > 100 | 5.59 | 63.9 | 15.4 | > 100 | > 61.1 |  |  |  |  |  |  |  |  |  |
| CC12O[C@H](c3ccccc3)[C@H](c3ccccc3)N1C(=O)C1(C(=O)OCc3ccccc3)CC12 (some centres not stated) | > 100 |  | > 100 | > 100 | > 100 |  | > 100 |  | > 100 | > 100 |  |  |  |  |  |  |  |  |  |
| NC(=O)N/N=C(\Cc1nc2ccc(C(=O)c3ccccc3)cc2[nH]c1=O)C(=O)Nc1ccc(Br)cc1 | > 100 |  | > 100 | > 100 | > 100 | > 100 | > 100 | > 100 | > 100 | > 100 |  |  |  |  |  |  |  |  |  |
| COC(=O)[C@H]1[C@H](C(=O)OC)[C@@H](C)c2c(ccc3c2[nH]c2ccccc23)[C@@H]1C | > 100 | > 100 |  | > 100 | > 100 | 82.9 | > 100 | > 100 | > 100 | > 100 |  |  |  |  |  |  |  |  |  |
| OCCSCCCSCCO |  | > 100 | > 100 | > 100 | > 100 |  | > 100 | > 100 | > 100 | 98.8 |  |  |  |  |  |  |  |  |  |
| CC(=O)NNc1nc(C)c(C(/C=C/c2ccc(Cl)cc2)=N\NS(=O)(=O)c2ccc(C)cc2)s1 | > 100 |  | > 100 | > 100 | > 100 | > 100 | > 100 | > 100 | > 100 | > 100 |  |  |  |  |  |  |  |  |  |
| COC1=CC(=O)C(O)=C(C[C@@]2(C)[C@@H]3CCC[C@H](COC(=O)CCCCCNC(=O)OC(C)(C)C)[C@@]3(C)CC[C@@H]2C)C1=O | > 10 |  |  |  | > 10 | > 10 | > 10 | > 10 | > 10 | > 10 |  |  |  |  |  |  |  |  |  |
| CN1N=C2c3ccccc3CC[C@H]2C1c1ccccc1 (some centres not stated) | > 100 |  | > 100 | > 100 | > 100 | 81.5 | > 100 | > 100 | > 100 | 77.9 |  |  |  |  |  |  |  |  |  |
| N#CCCC(CC#N)N1CCN(CCO)CC1 (configuration not stated) | > 100 |  | > 100 | > 100 | > 100 | > 100 | > 100 | > 100 | > 100 | > 100 |  |  |  |  |  |  |  |  |  |
| CN(C)CCNCc1c2ccccc2c(CNCCN(C)C)c2ccccc12 |  |  | 23.8 | > 100 | 72 | 62.7 | > 90.5 | 56.9 | > 100 | 47.3 |  |  |  |  |  |  |  |  |  |
| O=c1ccc2ccccc2o1 | > 100 |  | > 100 | > 100 | > 100 | > 100 | > 100 | > 100 | > 100 | > 100 |  |  |  |  |  |  |  |  |  |
| CN1CCN(CC(=O)Nc2ccc3ncnc(Nc4ccc(Oc5cccc(C(F)(F)F)c5)c(Cl)c4)c3c2)CC1 | 2.33 | 2.85 |  | 2.52 | 3.02 | 2.89 | 3.11 |  | 2.46 | 2.46 | 1.12 | 1.47 | 1.2 | 1.09 | 1.51 | 1.41 | 1.49 | 1.2 |  |
| Cc1ccc(NC(=O)CC(=O)n2nc(-c3ccccc3)c(N=Nc3ccc(Cl)cc3)c2-c2ccccc2)cc1 | > 100 |  | > 100 | > 100 | > 100 |  | > 100 |  | > 100 | 89 |  |  |  |  |  |  |  |  |  |
| CN(C)c1ccc(/C=C/c2sc3ccc4ccccc4c3[n+]2C)cc1 | > 100 |  | 1.57 | > 31.5 |  |  |  |  | 3.84 | 2.84 | 0.537 |  | 0.692 | 0.636 |  |  |  | 0.401 | 0.365 |
| Cc1cc(Cc2cc(C)c(NC(=O)C(=O)C3C(=O)NC(=S)NC3=O)c(C(C)C)c2)cc(C(C)C)c1NC(=O)C(=O)C1C(=O)NC(=S)NC1=O | > 100 |  | > 100 | > 100 | > 100 | > 100 | > 100 | > 100 | > 100 | > 100 |  |  |  |  |  |  |  |  |  |
| COc1ccc(NC(=O)C(=O)NNC(=O)c2sc(NNC(C)=O)nc2C)c([N+](=O)[O-])c1 | > 100 |  | > 100 | > 100 | > 100 |  | > 100 | > 100 | > 100 | > 100 |  |  |  |  |  |  |  |  |  |
| CCc1cccc(C(C)C)c1NC(=O)C(=O)C(C(=O)C(=O)OC)c1nc2ccccc2[nH]c1=O (configuration not stated) | > 100 |  | > 100 | > 100 | > 100 | > 100 | > 100 | > 100 | > 100 | > 100 |  |  |  |  |  |  |  |  |  |
| Cc1cc(N(CCC#N)CCC#N)ccc1/C=C(\NC(=O)/C=C/c1ccccc1)NC(=O)Nc1ccc(Cl)cc1 | > 100 |  | > 100 | > 100 | > 100 | 52.6 | > 100 | 39.4 | > 100 | > 100 |  |  |  |  |  |  |  |  |  |

From PubChem BioAssay (NCI)
